# Laboratory results as given in patent publication US9605004B2, “Chemical compounds” (SYNGENTA LIMITED, priority 2013, dated 2017).
# Legend:
# [1] = system: a variety of test species; assay: Pre-emergence herbicidal activity (Example 8a, Table 2); assay type: in vivo; design: key: 0 = no damage to plant, 5 = total damage to plant; details: application pre-emergence, rate 1000 g/ha, evaluated after 13 days
# Procedure: Seeds of a variety of test species were sown in standard soil in pots. After cultivation for one day (pre-emergence) under controlled conditions in a glasshouse (at 24/16° C., day/night; 14 hours light; 65% humidity), the plants were sprayed with an aqueous spray solution derived from the formulation of the technical active ingredient in acetone/water (50:50) solution containing 0.5% Tween 20 (polyoxyethelyene sorbitan monolaurate, CAS RN 9005-64-5). The test plants were then grown in a glasshouse under controlled conditions (at 24/16° C., day/night; 14 hours light; 65% humidity) and watered twice daily. After 13 days, the test was evaluated (5=total damage to plant; 0=no damage to plant).
# [2] = system: a variety of test species; assay: Post-emergence herbicidal activity (Example 8b, Table 3); assay type: in vivo; details: application post-emergence, rate 1000 g/ha, evaluated after 13 days, scale 0-5; for Herbicidal damage score, ABUTH: Abutilon theophrasti; for Herbicidal damage score, ALOMY: Alopecurus myosuroides; for Herbicidal damage score, AMARE: Amaranthus retroflexus; for Herbicidal damage score, ECHCG: Echinochloa crus-galli; for Herbicidal damage score, SETFA: Setaria faberi; for Herbicidal damage score, ZEAMX: Zea mays
# Procedure: Seeds of a variety of test species were sown in standard soil in pots. After 8 days cultivation (post-emergence) under controlled conditions in a glasshouse (at 24/16° C., day/night; 14 hours light; 65% humidity), the plants were sprayed with an aqueous spray solution derived from the formulation of the technical active ingredient in acetone/water (50:50) solution containing 0.5% Tween 20 (polyoxyethelyene sorbitan monolaurate, CAS RN 9005-64-5). The test plants were then grown in a glasshouse under controlled conditions (at 24/16° C., day/night; 14 hours light; 65% humidity) and watered twice daily. After 13 days, the test was evaluated (5=total damage to plant; 0=no damage to plant).
Compound,"Pre-emergence herbicidal activity, damage score ABUTH [1]","Pre-emergence herbicidal activity, damage score ALOMY [1]","Pre-emergence herbicidal activity, damage score AMARE [1]","Pre-emergence herbicidal activity, damage score ECHCG [1]","Pre-emergence herbicidal activity, damage score SETFA [1]","Pre-emergence herbicidal activity, damage score ZEAMX [1]","Herbicidal damage score, ABUTH [2]","Herbicidal damage score, ALOMY [2]","Herbicidal damage score, AMARE [2]","Herbicidal damage score, ECHCG [2]","Herbicidal damage score, SETFA [2]","Herbicidal damage score, ZEAMX [2]"
CCOC(c1cc(N2C(=O)C(Cl)=C(C)C2O)nn1C)C(C)(C)C (mixture of isomers) [Compound B34],4,2,2,3,1,1,5,3,2,3,3,0
CC1=C(Cl)C(=O)N(c2cc(C(F)C(C)(C)C)n(C)n2)C1O (mixture of isomers) [Compound B37],4,3,5,3,4,3,4,5,5,5,5,4
CC1=C(Cl)C(=O)N(c2cc(C(C)(F)C(C)(C)C)n(C)n2)C1O (mixture of isomers) [Compound B40],5,1,3,2,3,0,5,4,5,5,5,1
CC1=C(Cl)C(=O)N(c2cc(C(C)c3ccccc3)n(C)n2)C1O (mixture of isomers) [Compound B41],4,3,2,4,4,2,5,5,4,5,5,2
CC1=C(Cl)C(=O)N(c2cc([S+](C)[O-])n(C)n2)C1O (mixture of isomers) [Compound B46],5,3,5,4,4,1,5,4,5,5,5,4
CCC1CCn2nc(N3C(=O)C(Cl)=C(C)C3O)cc21 (mixture of isomers) [Compound C10],4,4,5,4,5,2,5,4,5,5,5,4
CC1=C(Cl)C(=O)N(c2cc3n(n2)CCC3C)C1O (mixture of isomers) [Compound G1],5,4,5,5,4,3,5,5,5,5,5,5
CCC1CCCn2nc(N3C(=O)C(Cl)=C(C)C3O)cc21 (mixture of isomers) [Compound G5],5,3,5,5,4,1,5,4,5,5,5,5
CC1=C(Cl)C(=O)N(c2cc3n(n2)CCC3C)C1O (mixture of isomers) [Compound G6],5,4,5,5,4,3,5,5,5,5,5,5
CCC1CCCn2nc(N3C(=O)C(Cl)=C(C)C3O)cc21 (mixture of isomers) [Compound G7],5,3,5,5,4,1,5,4,5,5,5,5
CC1=C(Cl)C(=O)N(c2cc3n(n2)CC[S+]([O-])C3(C)C)C1O (mixture of isomers) [Compound G12],4,3,4,4,3,3,4,3,4,4,3,1
CC1=C(Br)C(=O)N(c2cc3n(n2)CC[S+]([O-])C3(C)C)C1O (mixture of isomers) [Compound M5],2,1,2,2,1,1,4,2,2,2,1,0
